In ChEMBL document CHEMBL4706519, “Evaluation of N-phenyl-2-aminothiazoles for treatment of multi-drug resistant and intracellular Staphylococcus aureus infections” (Eur J Med Chem, 2020):
Values after ≈ are worked out from the molar mass of the structure shown.

What was measured:
[1] = system: Staphylococcus aureus; experiment: Antibacterial activity against methicillin-resistant Staphylococcus aureus USA300 NRS384 assessed as inhibition of bacterial growth measured after 18 to 20 hrs by broth microdilution method; type: functional; conditions: time 18-20 hrs
[2] = system: Escherichia coli; experiment: Antibacterial activity against wild type Escherichia coli BW25113 assessed as inhibition of bacterial growth measured after 18 to 20 hrs by broth microdilution method; type: functional; conditions: time 18-20 hrs
[3] = system: Staphylococcus aureus; experiment: Ratio of MBC to MIC against methicillin-sensitive Staphylococcus aureus ATCC 6538 assessed as inhibition of bacterial growth measured after 18 to 20 hrs by CLSI broth microdilution method; type: functional; conditions: time 18-20 hrs
[4] = system: Staphylococcus epidermidis; experiment: Ratio of MBC to MIC for methicillin-resistant Staphylococcus epidermidis NRS101 assessed as inhibition of bacterial growth measured after 18 to 20 hrs by CLSI protocol based broth microdilution method; type: functional; conditions: time 18-20 hrs
[5] = system: Staphylococcus epidermidis; experiment: Antibacterial activity against methicillin-resistant Staphylococcus epidermidis NRS101 assessed as inhibition of bacterial growth measured after 18 to 20 hrs by CLSI protocol based broth microdilution method; type: functional; conditions: time 18-20 hrs
[6] = system: Staphylococcus aureus; experiment: Bactericidal activity against methicillin-resistant Staphylococcus aureus USA400 NRS123 assessed as post-antibiotic effect at 5 times MIC incubated for 2 hrs followed by compound wash-out by viable plate count method; type: functional
[7] = Cytotoxicity against human Caco-2 cells assessed as cell viability at 64 ug/ml incubated for 2 hrs by MTS assay relative to control; type: cell-based; conditions: at 64 µg/mL, read-out: Activity
[8] = Selectivity index, ratio of maximum non-toxic concentration for human Caco-2 cells to MIC for methicillin-resistant Staphylococcus aureus USA500 NRS385; type: toxicity
[9] = system: Staphylococcus aureus; experiment: Antibacterial activity against methicillin-resistant Staphylococcus aureus USA400 NRS123 infected in mouse J774 cells assessed as reduction in intracellular bacterial burden at 2 x MIC measured after 24 hrs relative to control; type: functional
[10] = in vitro; conditions: human, liver microsomes

C/C(=N\NC(=N)N)c1ccc(Nc2nc(-c3ccc(C)cc3)cs2)cc1
MIC [1]: 2 mg/L (≈ 5.49 µM)
MIC [2]: 16 mg/L (≈ 43.9 µM)
Ratio [3]: 1
Ratio [4]: 1
MBC [5]: 1 mg/L (≈ 2.74 µM)
MIC [5]: 1 mg/L (≈ 2.74 µM)
PAE [6]: 6 h
viability at 2 h, 64 ug/ml [7]: 100%
selectivity ratio [8]: 16
inhibition (INH) [9]: 93%
microsomal CLint at 1 h, 0.1 µM [10]: 58.9 µL/min/mg
